According to ChEMBL document CHEMBL5725908, “Tricyclic DLK inhibitors and uses thereof” (2018):
pKi: −log10 of the molar value.

Molecular target: T1, Mitogen-activated protein kinase kinase kinase 12 (Homo sapiens, UniProt Q12852)
T1 sequence (Q12852 whole entry): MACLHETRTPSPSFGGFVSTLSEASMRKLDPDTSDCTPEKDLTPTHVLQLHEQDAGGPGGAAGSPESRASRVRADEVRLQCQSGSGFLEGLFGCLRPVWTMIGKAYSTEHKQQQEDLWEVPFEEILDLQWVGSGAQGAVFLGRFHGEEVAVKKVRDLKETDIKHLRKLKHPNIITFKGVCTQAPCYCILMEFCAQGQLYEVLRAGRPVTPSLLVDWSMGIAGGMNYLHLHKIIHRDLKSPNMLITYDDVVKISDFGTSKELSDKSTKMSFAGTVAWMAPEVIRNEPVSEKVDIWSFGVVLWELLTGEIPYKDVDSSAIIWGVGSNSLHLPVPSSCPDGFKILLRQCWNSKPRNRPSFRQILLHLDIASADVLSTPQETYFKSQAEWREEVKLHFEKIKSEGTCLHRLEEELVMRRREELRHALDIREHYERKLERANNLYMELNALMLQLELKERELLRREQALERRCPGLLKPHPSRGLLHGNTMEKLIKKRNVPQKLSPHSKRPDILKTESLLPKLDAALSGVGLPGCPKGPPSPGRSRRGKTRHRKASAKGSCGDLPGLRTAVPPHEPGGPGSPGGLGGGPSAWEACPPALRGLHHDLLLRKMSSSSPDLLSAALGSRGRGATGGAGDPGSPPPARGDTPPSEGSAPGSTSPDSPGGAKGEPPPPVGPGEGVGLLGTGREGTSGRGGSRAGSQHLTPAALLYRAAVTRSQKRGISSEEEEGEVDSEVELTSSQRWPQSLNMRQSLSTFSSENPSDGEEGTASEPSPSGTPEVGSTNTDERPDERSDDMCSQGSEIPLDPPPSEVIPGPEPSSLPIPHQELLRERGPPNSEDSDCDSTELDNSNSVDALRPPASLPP
Assay: DLK TR-FRET Inhibition Assay: DLK kinase reactions (20 μL) containing 5 nM N-terminally GST-tagged DLK (catalytic domain amino acid 1-520) (Carna Bioscience), 40 nM N-terminally HIS tagged MKK4 K131M substrate, and 30 μM ATP in kinase reaction buffer (50 mM HEPES, pH 7.5, 0.01% Triton X-100, 0.01% Bovine γ-Globulins, 2 mM DTT, 10 mM MgCl2 and 1 mM EGTA), and testing compound 1:3 serial diluted starting at 20 uM were incubated at ambient temperature for 60 minutes in 384 well OptiPlate (Perkin Elmer). To quench kinase reactions and detect phosphorylated MKK4, 15 μL of TR-FRET antibody mixture containing 2 nM anti-phosphorylated MKK4 labeled with Europium cryptate (Cisbio) and 23 nM anti-HIS labeled with D2 (Cisbio) in detection buffer (25 mM Tris pH 7.5, 100 mM NaCl, 100 mM EDTA, 0.01% Tween-20, and 200 mM KF) was added to the reaction mixture. The detection mixture was incubated for 3 hours at ambient temperature and the TR-FRET was detected with an EnVision multilabel plate reader (Perkin-Elmer) using the LANCE/DELFIA Dual Enh label from Perkin-Elmer (excitation filter: UV2 (TRF) 320 and emission filters: APC 665 and Europium 615).

Row | pKi | SMILES
1 | 7.33 | Cc1c[nH]c2ncc(-c3nc(N4CC5COCC5C4)c4nc5n(c4n3)CCOC5(C)C)cc12 (centres undefined)
2 | 6.00 | CC1(C)OCCn2c1nc1c(N3CC4COCC4C3)nc(-c3cnc(N)nc3)nc12 (centres undefined)
3 | 6.65 | COC1C2CCC1N(c1nc(-c3cnc(N)nc3)nc3c1nc1n3CCOC1(C)C)C2 (centres undefined)
4 | 5.85 | CC(C)n1nccc1-c1nc(-c2cnc(N)nc2)nc2c1nc1n2CCOC1(C)C
